{"source": "patent US8901120B2", "about": "“Substituted N-phenylpyrimidin-2-amine analogs as inhibitors of the Axl kinase” (University of Utah Research Foundation, priority 2011, dated 2014)", "key": {"[1]": {"system": "phosphorylated Axl (pAxl)", "assay": "GAS6-Axl signalling assay, autophosphorylation of Axl", "format": "cell-based, Human", "details": "pancreatic cancer cell lines, GAS6 stimulation, FIG. 8B", "protocol": "(§1) Cell lines were seeded in 1 ml of the appropriate growth media with 10% FBS into 6-well plates (8×10^5 cells/well) and incubated overnight at 37° C. and 5% CO2. The following day, serum-containing growth media was replaced by serum-free media and incubated for 4 hr, and then test compounds were added to the cells at desired concentrations and incubated for an additional 2 hr. To stimulate Axl signaling, Gas6 was added to each well to a concentration of 3 μg/ml and incubated for 10 min. The cells were lysed immediately and the lysates used in a multiplex ELISA kit (Meso Scale Discovery, Gaithersburg, Md.) to quantitate the phosphorylated AKT (at position Ser473′ “pAkt”) or phosphorylated Axl (“pAxl”)."}, "Aurora family of kinases": {"system": "Aurora family of kinases", "assay": "Kinase profiling, Aurora family", "format": "biochemical", "details": "200 nM test compound, ATP at Km apparent, FIG. 9", "protocol": "(§2) The specificity of kinase inhibition was assessed with a representative compound, 2-((5-chloro-2-((4-((4-methylpiperazin-1-yl)methyl)phenyl)amino)pyrimidin-4-yl)amino)-N,N-dimethylbenzenesulfonamide, by determining the activity of this test compound against a panel of protein kinases. Kinase profiling was performed against a focus panel of kinases relevant to PDK1 signaling and other known oncogenic kinases. The panel comprised 75 distinct protein kinases, and data are shown for a subset of 39 kineases (see FIG. 9). […] The results from this screen confirmed good activity against Axl and the related members of the TAM family of kinases."}, "pancreatic cancer cells": {"system": "pancreatic cancer cells", "assay": "Cell migration assay (collagen I Platypus plates)", "format": "cell-based", "details": "18 hours migration, with Gas6, FIG. 10", "protocol": "In this system, a gel prevents attachment of cells in a circle. The gel dissolves by exposure to the media, allowing cells to migrate into the open area. Cells migrated for 18 hours before fixation and staining. The extent of cell migration was determined by measuring the open surface in the inner circle of the well."}, "[2]": {"system": "Axl and the related members of the TAM family of kinases", "assay": "Kinase profiling, Axl and TAM family", "format": "biochemical", "details": "200 nM test compound, ATP at Km apparent, FIG. 9", "protocol": "as §2"}, "PSN-1 cells": {"system": "PSN-1 cells", "assay": "Tumor xenograft animal model", "format": "in vivo, mouse", "details": "PSN-1 xenograft, 50 mg/kg oral gavage daily (M-F)", "protocol": "The in vivo activity of the foregoing compound was assessed in a tumor xenograft model in mouse. PSN-1 cells were cultured as described above and harvested. Cells (2 to 5×10^6 in 100 μl culture media) were implanted subcutaneously in the right hind flank of athymic nu/nu nude mice (5 to 6 weeks old, 18-22 g). Following implantation, the tumors are allowed to grow to 100 mm^3 before the animals are randomized into treatment groups (vehicle and test compound). Day 1 of study corresponds to the day that the animals receive their first dose of test compound (2-((5-chloro-2-((4-((4-methylpiperazin-1-yl)methyl)phenyl)amino)pyrimidin-4-yl)amino)-N,N-dimethylbenzenesulfonamide). The vehicle for this study was 5% EtOH, 45% PEG 400, and 50% water, and animals were dosed with either vehicle or test compound dissolved in this vehicle by oral gavage. The dose level was 50 mg/kg and dosing frequency was daily (M-F) with the test compound with recovery on the weekend.\nThe test compound was efficacious in limiting tumor growth, achieving about a 50% reduction in tumor volume at this dose level during this dosing period (FIG. 15)."}, "[3]": {"system": "phosphorylated Akt (Ser473)", "assay": "GAS6-Axl signalling assay, phosphorylated Akt", "format": "cell-based", "details": "Homo sapiens; PSN-1 and PL45 cells, in the presence of Gas6, FIG. 8A; read-out: IC50, inhibition of phosphorylated Akt levels", "protocol": "as §1\nTo further explore the activity of a representative compound, 2-((5-chloro-2-((4-((4-methylpiperazin-1-yl)methyl)phenyl)amino)pyrimidin-4-yl)amino)-N,N-dimethylbenzenesulfonamide, of inhibiting Axl in a cell line system, the effect of the test compound on Akt phosphorylation (at the Ser473 position) was determined. The effect on Akt phosphorylation was assessed in two cell-lines (see FIG. 8A): PSN-1 and PL45. The overall method was as described above. Briefly, the cells were treated as indicated and lysates from these treatments were analyzed for phosphorylated Akt (Ser473) as described above."}, "[4]": {"assay": "Pharmacokinetics after oral dosing", "format": "in vivo", "details": "mouse, mice, 50 mg/kg orally, plasma", "protocol": "Mice were dosed orally with 50 mg/kg of the title compound. Blood was collected at the indicated time points (see FIG. 16)."}, "JAK family of kinases": {"system": "JAK family of kinases", "assay": "Kinase profiling, JAK family", "format": "biochemical", "details": "200 nM test compound, ATP at Km apparent, FIG. 9", "protocol": "as §2"}, "[5]": {"system": "sAxl in PL45 and PSN-1 cells", "assay": "Release of sAxl into cell culture media (ELISA)", "format": "cell-based, Human", "details": "PL45 and PSN-1, serum-free, 24 hours, vs vehicle, FIG. 11", "protocol": "Cell lines were plated and incubated overnight as described above. The following day the media was changed to serum-free and the cells were treated as indicated as indicated. After 24 hours, the media from the treatments were analyzed for sAxl (R&D Systems, Minneapolis, Minn.).\nThe proteolytic processing of the extracellular domain of the Axl receptor is a known event downstream of Axl activation and results in the release of soluble Axl (sAxl) into the cell culture media (in vitro) or into the blood stream (in vivo)."}}, "data": [{"smiles": "CN1CCN(Cc2ccc(Nc3ncc(Cl)c(Nc4ccccc4S(=O)(=O)N(C)C)n3)cc2)CC1", "note": "[2-((5-chloro-2-((4-((4-methylpiperazin-1-yl)methyl)phenyl)amino)pyrimidin-4-yl)amino)-N,N-dimethylbenzenesulfonamide]", "values": [{"measurement": "inhibition of autophosphorylation of Axl", "setting": "[1]", "result": "dramatically inhibited"}, {"measurement": "activity against Aurora family kinases in kinase profiling", "setting": "Aurora family of kinases", "result": "significant activity"}, {"measurement": "inhibition of Gas6-induced migration and invasion", "setting": "pancreatic cancer cells", "result": "inhibited"}, {"measurement": "activity against Axl and TAM family kinases in kinase profiling", "setting": "[2]", "result": "good activity"}, {"measurement": "impact on body weight", "setting": "PSN-1 cells; FIG. 14", "result": "no apparent impact"}, {"measurement": "reduction in tumor volume", "setting": "PSN-1 cells; FIG. 15", "result": "~50", "unit": "%"}, {"measurement": "IC50", "setting": "[3]", "result": "~300", "unit": "nM"}, {"measurement": "AUC(0-t)", "setting": "[4]", "result": 507, "unit": "ng·h/mL"}, {"measurement": "Cmax", "setting": "[4]", "result": 604, "unit": "ng/mL"}, {"measurement": "Tmax", "setting": "[4]", "result": 15, "unit": "min"}, {"measurement": "half-life", "setting": "[4]", "result": 66, "unit": "min"}, {"measurement": "activity against JAK family kinases in kinase profiling", "setting": "JAK family of kinases", "result": "significant activity"}, {"measurement": "reduction in sAxl levels in conditioned media", "setting": "[5]", "result": "significant dose-dependent reductions"}]}]}
